In patent US20030220524A1, “Sulfur containing compounds” (priority 2000, published 2003):

Assays:
Type in all cases: cell-based
Aspergillus flavus = assay: Antifungal paper disk test, diameter of clear zone; details: for zone of inhibition at 100 µg/disc: read-out: Diameter (mm) of clear Zone A. flavus
Description: (§1) Sulfur compounds were tested for antifungal activity against pure cultures of Aspergillus niger and Aspergillus flavus supplied by Ward's Natural Science Ltd (St. Catharines, Ontario, Canada). They were maintained on Sabouraud Dextrose Agar.
(§2) For the test, 6 agar plugs (5 mm diameter) were cut from a 5-8 day old colony and homogenized in distilled, sterilized water (2 ml). A portion of this suspension (0.5 ml) was transferred aseptically to a Petri plate with Sabouraud Dextrose Agar (15 ml) and spread evenly over the entire surface. […] Each test compound was applied to the disks as a solution (50 mg compound/10 ml acetone). Control disks were treated with neat acetone (20 μl). Test plates with fungal homogenates and disks were incubated at 18-20° C. for 2 days. For each test four replicate plates were used. The diameter of the clear zone surrounding the disk was taken as the indicator of antifungal activity.

Aspergillus niger = assay: Antifungal paper disk test, diameter of clear zone; details: for zone of inhibition at 100 µg/disc: read-out: Diameter (mm) of clear Zone A. niger
Description: as §1, §2

[1] = system: Aspergillus niger and Aspergillus flavus; assay: Antifungal activity; details: in words; for Antifungal activity: dose not given
Description: as §1
For the test, 6 agar plugs (5 mm diameter) were cut from a 5-8 day old colony and homogenized in distilled, sterilized water (2 ml). A portion of this suspension (0.5 ml) was transferred aseptically to a Petri plate with Sabouraud Dextrose Agar (15 ml) and spread evenly over the entire surface. Each plate was supplied with four evenly spaced paper disks (7 mm, Whatman Number 1 filter paper) containing the test compound (0, 25, 50 and 100 μg respectively). Each test compound was applied to the disks as a solution (50 mg compound/10 ml acetone). Control disks were treated with neat acetone (20 μl). Test plates with fungal homogenates and disks were incubated at 18-20° C. for 2 days. For each test four replicate plates were used. The diameter of the clear zone surrounding the disk was taken as the indicator of antifungal activity.

[2] = 0.25 μg/disk, Appl'n Solvent Acetone
[3] = Aspergillus flavus, 25 μg/disk, acetone
[4] = Aspergillus niger, 25 μg/disk, acetone
[5] = Aspergillus flavus, 100 μg/disk, acetone
[6] = Aspergillus niger, 100 μg/disk, acetone

“1-p-toluenesulfonyl-4-propionoxy-2,3-dithiabutane [C2H5OC(O)CH2SSCH2SO2(C6H4)—p-CH3]” was tested, and the “Diameter (mm) of clear Zone A. flavus” value (Aspergillus flavus; [2]) was 5.2 mm and the “Diameter (mm) of clear Zone A. niger” value (Aspergillus niger; [2]) was 8.5 mm.

In the case of `O=S(=O)(Sc1ccccc1)c1ccccc1` [(C6H5)SO2S(C6H5)], the “Diameter (mm) of clear Zone A. flavus” value (Aspergillus flavus; 25 μg/disk, acetone) is reported as 3.8 mm and the “Diameter (mm) of clear Zone A. niger” value (Aspergillus niger; 25 μg/disk, acetone) is reported as 3.9 mm.

`CSCSSCSC` [(CH3SCH2S)2, reference compound] was tested, and the “Diameter (mm) of clear Zone A. flavus” value (Aspergillus flavus; 100 μg/disk, acetone) was 2.3 mm and the “Diameter (mm) of clear Zone A. niger” value (Aspergillus niger; 100 μg/disk, acetone) was 2.5 mm.

With `CSSCS(=O)(=O)c1ccccc1` [C6H5SO2CH2SSCH3, α-phenylsulfonyl dimethyl disulphide] the “Diameter (mm) of clear Zone A. flavus” value (Aspergillus flavus; 25 μg/disk, acetone) was 4.2 mm and the “Diameter (mm) of clear Zone A. niger” value (Aspergillus niger; 25 μg/disk, acetone) was 5.5 mm.

Work on `CCC(=O)OCSSC` [CH3CH2C(O)OCH2SSCH3, 2,3-dithiabutyl propionate] yielded a zone of inhibition at 25 µg/disc (Aspergillus flavus; [3]) of 7.6 mm and a zone of inhibition at 25 µg/disc (Aspergillus niger; [4]) of 14.8 mm.

`CCS(=O)(=O)SC` [CH3CH2SO2SCH3, Methyl Ethanethiosulfonate] was tested, and the “Diameter (mm) of clear Zone A. flavus” value (Aspergillus flavus; 50 μg/disk, acetone) was 1.3 mm and the “Diameter (mm) of clear Zone A. niger” value (Aspergillus niger; 50 μg/disk, acetone) was 2.0 mm.

Molecule `CCC(=O)OCSSCC(=O)OC` [CH3OC(O)CH2SSCH2OC(O)C2H5, methyl 3,4-dithia-5-propionoxypentanoate] has a zone of inhibition at 0.25 µg/disc (Aspergillus flavus; Aspergillus flavus, 0.25 μg/disk, Appl'n Solvent Acetone) of 2.3 mm, a zone of inhibition at 0.25 µg/disc (Aspergillus flavus; Aspergillus flavus, 0.25 μg/disk, Appl'n Solvent DMSO) of 7.9 mm and a zone of inhibition at 0.25 µg/disc (Aspergillus niger; Aspergillus niger, 0.25 μg/disk, Appl'n Solvent Acetone) of 3 mm. For the same molecule, the zone of inhibition at 0.25 µg/disc (Aspergillus niger; Aspergillus niger, 0.25 μg/disk, Appl'n Solvent DMSO) was 11.7 mm.

For `CSCS(C)(=O)=O` [CH3SO2CH2SCH3, 2,4-dithiapentane 2,2-dioxide], the zone of inhibition at 100 µg/disc (Aspergillus flavus; [5]) was 0 mm and the zone of inhibition at 100 µg/disc (Aspergillus niger; [6]) was 0 mm.

With `CCSSCS(C)(=O)=O` [CH3SO2CH2SSCH2CH3, 2,4,5-trithiaheptane 2,2,-dioxide] the “Diameter (mm) of clear Zone A. flavus” value (Aspergillus flavus; 25 μg/disk, acetone) was 3.3 mm and the “Diameter (mm) of clear Zone A. niger” value (Aspergillus niger; 25 μg/disk, acetone) was 4.8 mm.

In the case of `CSSCS(C)(=O)=O` [CH3SO2CH2SSCH3, α-methylsulfonyl dimethyl disulphide], the “Diameter (mm) of clear Zone A. flavus” value (Aspergillus flavus; 25 μg/disk, acetone) is reported as 3.8 mm and the “Diameter (mm) of clear Zone A. niger” value (Aspergillus niger; 25 μg/disk, acetone) is reported as 2.7 mm.

For `CSSCCOC(C)=O` [CH3SSCH2CH2OC(O)CH3, 3,4-dithiapentyl acetate], the zone of inhibition at 100 µg/disc (Aspergillus flavus; [5]) was 0 mm and the zone of inhibition at 100 µg/disc (Aspergillus niger; [6]) was 0 mm.

With `CSSCOC(=O)c1ccccc1` [CH3SSCH2OC(O)Ph, 2,3-dithiabutyl benzoate] the zone of inhibition at 25 µg/disc (Aspergillus flavus; [3]) was 8.4 mm and the zone of inhibition at 25 µg/disc (Aspergillus niger; [4]) was 6.1 mm.

For `CSSC` [CH3SSCH3, dimethyl disulphide], the “Diameter (mm) of clear Zone A. flavus” value (Aspergillus flavus; 100 μg/disk, acetone) was 0 mm, the “Diameter (mm) of clear Zone A. niger” value (Aspergillus niger; 100 μg/disk, acetone) was 0 mm and the Antifungal activity [1] was “no antifungal behaviour”.

`CSSc1ccccc1` [Compound C6H5SSCH3, phenyl methyl disulphide] was tested, and the zone of inhibition at 100 µg/disc (Aspergillus flavus; [5]) was 0 mm, the zone of inhibition at 100 µg/disc (Aspergillus niger; [6]) was 0 mm and the “Antifungal activity / fungitoxicity” value ([1]; 100 μg/disk) was “no observable fungitoxicity”.

Work on `CS(=O)(=O)c1ccccc1SSc1ccccc1S(C)(=O)=O` [[o-CH3SO2(C6H4)S]2, o-methylsulfonylphenyl disulphide] yielded a zone of inhibition at 25 µg/disc (Aspergillus flavus; [3]) of 3 mm and a zone of inhibition at 25 µg/disc (Aspergillus niger; [4]) of 3.3 mm.

Molecule `CS(=O)(=O)c1ccc(SSc2ccc(S(C)(=O)=O)cc2)cc1` [[p-CH3SO2(C6H4)S]2, p-methylsulfonylphenyl disulphide] has a zone of inhibition at 25 µg/disc (Aspergillus flavus; [3]) of 6.9 mm and a zone of inhibition at 25 µg/disc (Aspergillus niger; [4]) of 4 mm.

In the case of `CSSc1cccc([N+](=O)[O-])c1` [m-O2N(C6H4)SSCH3, methyl m-nitrophenyl disulphide], the zone of inhibition at 10 µg/disc (Aspergillus flavus; Aspergillus flavus, 10 μg/disk, acetone) is reported as 1.8 mm and the zone of inhibition at 10 µg/disc (Aspergillus niger; Aspergillus niger, 10 μg/disk, acetone) is reported as 1.7 mm.

For `COC(=O)c1ccccc1SSC` [o-CH3OC(O)(C6H4)SSCH3, methyl-o(methyldithio)benzoate], the “Diameter (mm) of clear Zone A. flavus” value (Aspergillus flavus; 25 μg/disk, acetone) was 4.3 mm and the “Diameter (mm) of clear Zone A. niger” value (Aspergillus niger; 25 μg/disk, acetone) was 2.8 mm.

`Cc1ccc(S(=O)(=O)CS)cc1` [p-CH3(C6H4)SO2CH2SH, α-p-toluenesulfonyl methyl mercaptan] was tested, and the “Diameter (mm) of clear Zone A. flavus” value (Aspergillus flavus; 100 μg/disk, acetone) was 0 mm and the “Diameter (mm) of clear Zone A. niger” value (Aspergillus niger; 100 μg/disk, acetone) was 0 mm.

In the case of `Cc1ccc(S(=O)(=O)Sc2ccc([N+](=O)[O-])cc2)cc1` [p-CH3(C6H4)SO2S(C6H4)NO2—p, p-Nitrophenyl p-Toluenethiosulfonate], the “Diameter (mm) of clear Zone A. flavus” value (Aspergillus flavus; 25 μg/disk, acetone) is reported as 2.0 mm and the “Diameter (mm) of clear Zone A. niger” value (Aspergillus niger; 25 μg/disk, acetone) is reported as 3.0 mm.

For `Cc1ccc(S(=O)(=O)Sc2ccccc2)cc1` [p-CH3(C6H4)SO2S(C6H5)], the “Diameter (mm) of clear Zone A. flavus” value (Aspergillus flavus; 25 μg/disk, acetone) was 3.3 mm and the “Diameter (mm) of clear Zone A. niger” value (Aspergillus niger; 25 μg/disk, acetone) was 4.3 mm.

With `COC(=O)CSS(=O)(=O)c1ccc(C)cc1` [p-CH3(C6H4)SO2SCH2CO2CH3, Carbomethoxymethyl p-Toluenethiosulfonate] the “Diameter (mm) of clear Zone A. flavus” value (Aspergillus flavus; 50 μg/disk, acetone) was 1.7 mm and the “Diameter (mm) of clear Zone A. niger” value (Aspergillus niger; 50 μg/disk, acetone) was 2.9 mm.

For `CSS(=O)(=O)c1ccc(C)cc1` [p-CH3(C6H4)SO2SCH3], the “Diameter (mm) of clear Zone A. flavus” value (Aspergillus flavus; 25 μg/disk, acetone) was 3.6 mm and the “Diameter (mm) of clear Zone A. niger” value (Aspergillus niger; 25 μg/disk, acetone) was 1.4 mm.

For `CS(=O)(=O)Oc1ccc(S(C)(=O)=O)cc1` [p-CH3SO2(C6H4)OSO2CH3, p-methylsulfonylphenyl methanesulfonate], the zone of inhibition at 100 µg/disc (Aspergillus flavus; [5]) was 0 mm and the zone of inhibition at 100 µg/disc (Aspergillus niger; [6]) was 0 mm.

With `CS(=O)(=O)Sc1ccc([N+](=O)[O-])cc1` [p-CH3SO2S(C6H4)NO2, p-Nitrophenyl Methanethiosulfonate] the “Diameter (mm) of clear Zone A. flavus” value (Aspergillus flavus; 25 μg/disk, acetone) was 1.2 mm and the “Diameter (mm) of clear Zone A. niger” value (Aspergillus niger; 25 μg/disk, acetone) was 1.9 mm.

In the case of `CS(=O)(=O)Oc1ccc([N+](=O)[O-])cc1` [p-O2N(C6H4)OSO2CH3, p-nitrophenyl methanesulfonate], the zone of inhibition at 100 µg/disc (Aspergillus flavus; [5]) is reported as 0 mm and the zone of inhibition at 100 µg/disc (Aspergillus niger; [6]) is reported as 0 mm.

In the case of “Methyl methanethiosulfonate [CH3SO2SCH3]”, the “Diameter (mm) of clear Zone A. flavus” value (Aspergillus flavus; 100 μg/disk, acetone) is reported as 0 mm, the “Diameter (mm) of clear Zone A. niger” value (Aspergillus niger; 100 μg/disk, acetone) is reported as 3.3 mm and the Antifungal activity [1] is reported as “effective against only one of the test fungi”.

“o-Carbomethoxyphenyl Methanethiosulfonate [o-CH3SO2S(C6H4)CO2CH3]” was tested, and the “Diameter (mm) of clear Zone A. flavus” value (Aspergillus flavus; 100 μg/disk, acetone) was 0 mm and the “Diameter (mm) of clear Zone A. niger” value (Aspergillus niger; 100 μg/disk, acetone) was 0 mm.
